Measured values as given in US20060216238A1, “Compositions and methods for targeting or imaging a tissue in a vertebrate subject” (priority 2005, published 2006).

Key:
[1] = Stability of CPMV particles in simulated gastric conditions (SGF, SIF); format: in vitro ADME
Method: Stability of CPMV particles in simulated gastric conditions. Simulated gastric fluid (SGF) and simulated intestinal fluid (SIF) were prepared according to Takagi et al. Takagi et al., Biol. Pharm. Bull 26:969-973, 2003. Briefly, pepsin (3.8 mg; Sigma) was dissolved into 5 ml of gastric control fluid (2 mg/ml NaCl, pH 2.0). SIF was prepared by dissolving pancreatin, (10 mg/ml; Sigma) in intestinal control fluid (0.05 M […], pH 6.8). Both solutions were used within the same day. SGF (400 μl) was first incubated at 37° C. for 2 minutes before addition of CPMV (200 μg), giving a ratio of 10 U of pepsin activity/μg of CPMV. The tube contents were mixed by mild vortexing and the tube was immediately placed in a 37° C. water bath for time points ranging from 0-60 minutes, followed by neutralization with 70 μl of 200 mM sodium bicarbonate solution. Similarly, SIF was incubated at 37° C. for 2 minutes before addition of CPMV (200 μg) and the tube contents were placed in a 37° C. water bath for time points up to 120 minutes. Aliquots of virus exposed to SGF or SIF were mixed with 5 μl of NuPAGE 4× LDS-sample buffer, run on 4-12% SDS-PAGE gels, and stained with Simply Blue Safe Stain (Invitrogen). […]

[2] = RT-PCR detection of CPMV RNA in tissues of mice inoculated i.v.; settings: for CPMV RNA detected in bone marrow, mice positive/examined / CPMV RNA detected in brain, mice positive/examined / CPMV RNA detected in duodenum, mice positive/examined / CPMV RNA detected in ileum, mice positive/examined / CPMV RNA detected in jejunum, mice positive/examined / CPMV RNA detected in kidney, mice positive/examined / CPMV RNA detected in liver, mice positive/examined / CPMV RNA detected in lung, mice positive/examined / CPMV RNA detected in spleen, mice positive/examined / CPMV RNA detected in stomach, mice positive/examined: i.v.
cowpea plants = test: Recovery of virus particles from mouse tissues, infectivity to cowpea; design: species or system Vigna unguiculata
Method: Recovery of virus particles from mouse tissues. Four mice were orally inoculated with 150 μg/mouse of CPMV and 24 hours later, the mice were euthanized and the liver, spleen, and kidney tissues were extracted and pooled. Following homogenization of pooled tissue samples in PBS, the homogenates were centrifuged at 10,000 g for 10 minutes at 4° C., and the cleared tissue supernatants were removed to flat-bottom 50-ml centrifuge tubes, each containing a magnetic flea. Polyethylene glycol 8000 was added to each supernatant to a final concentration of 8% and the mixture was stirred for 30 minutes at 4° C. to precipitate any virus present. The resulting cloudy mixture was centrifuged at 6,000 rpm in a Sorvall RC5C centrifuge for 15 minutes and the pellet was resuspended in 50-500 μl of 0.1 M phosphate buffer (pH 7.0), depending on pellet size. For each tissue homogenate a 7-day-old cowpea plant was dusted with carborundum and the resuspended pellet from each tissue was rubbed onto a single primary leaf. Five to seven days later, the primary and secondary leaves were harvested and a circle of tissue weighing 70 mg was excised from each leaf. RNA was extracted using a Qiagen RNeasy Plant Mini Kit (Qiagen Research, Maryland, USA) and RT-PCR was conducted as described above. PCR products were electrophoresed on a 2% Seakem LE agarose gel. The PCR products were purified from the gel using a PCR purification kit (Qiagen) and sequenced (Retrogen) to confirm that they were CPMV specific. Southern hybridization of the products with a CPMV-specific probe was also performed using ^32P end-labeled oligonucleotides (Amersham Biosciences). PCR products were transfered to Hybond-N+ membrane (Amersham Biosciences) using standard techniques. Hybridization conditions were 3 hours at 55° C. and wash conditions were in 6×SSC/0.5% SDS and were performed twice for five minutes at room temperature and twice for 5 minutes at 50° C.

Flt-1 receptor (VEGFR1) = Flt-1 receptor (VEGFR1) (Homo sapiens, UniProt P17948); test: Binding and competition assays using ELISA
[3] = target: folate receptor (FR) on KB and HeLa cells (Homo sapiens, UniProt P15328); settings: 4° C., both cell lines
Chain of folate receptor (FR) on KB and HeLa cells (P15328 25-234): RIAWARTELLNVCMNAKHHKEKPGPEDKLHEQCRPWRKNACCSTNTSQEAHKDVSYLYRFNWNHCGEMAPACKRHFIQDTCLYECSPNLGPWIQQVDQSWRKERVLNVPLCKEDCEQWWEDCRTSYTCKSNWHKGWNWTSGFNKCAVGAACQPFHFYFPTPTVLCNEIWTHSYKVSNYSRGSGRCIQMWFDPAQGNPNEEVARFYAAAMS

Chain of Flt-1 receptor (VEGFR1) (P17948 27-1338): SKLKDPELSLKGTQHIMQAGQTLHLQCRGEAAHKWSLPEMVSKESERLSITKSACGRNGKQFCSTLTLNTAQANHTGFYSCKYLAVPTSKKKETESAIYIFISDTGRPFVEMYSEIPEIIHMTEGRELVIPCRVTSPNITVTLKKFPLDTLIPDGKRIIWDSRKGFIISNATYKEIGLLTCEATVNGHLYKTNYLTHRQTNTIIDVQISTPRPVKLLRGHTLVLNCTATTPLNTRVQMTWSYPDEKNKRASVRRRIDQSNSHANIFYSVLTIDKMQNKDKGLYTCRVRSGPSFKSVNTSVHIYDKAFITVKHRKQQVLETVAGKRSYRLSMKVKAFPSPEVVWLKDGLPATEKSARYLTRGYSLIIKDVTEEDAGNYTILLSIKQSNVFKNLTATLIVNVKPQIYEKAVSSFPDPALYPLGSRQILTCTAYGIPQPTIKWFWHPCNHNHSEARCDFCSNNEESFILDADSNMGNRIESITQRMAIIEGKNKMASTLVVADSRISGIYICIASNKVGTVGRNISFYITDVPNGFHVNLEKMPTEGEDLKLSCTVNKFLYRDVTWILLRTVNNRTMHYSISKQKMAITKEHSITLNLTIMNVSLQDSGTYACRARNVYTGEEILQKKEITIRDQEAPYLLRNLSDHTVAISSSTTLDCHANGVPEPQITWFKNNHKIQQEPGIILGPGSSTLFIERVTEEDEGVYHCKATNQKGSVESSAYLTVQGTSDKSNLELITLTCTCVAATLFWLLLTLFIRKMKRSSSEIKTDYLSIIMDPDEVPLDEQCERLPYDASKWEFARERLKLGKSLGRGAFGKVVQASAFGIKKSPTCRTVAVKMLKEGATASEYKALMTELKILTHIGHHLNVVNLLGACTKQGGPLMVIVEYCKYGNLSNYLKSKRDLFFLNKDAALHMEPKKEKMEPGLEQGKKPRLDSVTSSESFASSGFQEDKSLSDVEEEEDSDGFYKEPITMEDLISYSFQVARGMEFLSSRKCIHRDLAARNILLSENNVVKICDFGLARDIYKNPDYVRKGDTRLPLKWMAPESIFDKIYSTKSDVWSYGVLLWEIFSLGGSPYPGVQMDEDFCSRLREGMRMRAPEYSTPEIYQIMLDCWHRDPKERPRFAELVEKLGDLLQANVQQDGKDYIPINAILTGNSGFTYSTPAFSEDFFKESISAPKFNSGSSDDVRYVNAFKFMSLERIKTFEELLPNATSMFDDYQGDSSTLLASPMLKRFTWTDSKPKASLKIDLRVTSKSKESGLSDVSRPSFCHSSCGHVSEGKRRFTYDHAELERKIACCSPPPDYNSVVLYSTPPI

cowpea mosaic virus [CPMV]
integrity on Coomassie-stained gel after SGF ([1]; SGF, pepsin pH 2.0, 37° C., 0-60 minutes): remained intact
integrity on Coomassie-stained gel after SIF ([1]; SIF, pancreatin pH 6.8, up to 120 minutes): remained intact
CPMV RNA in any tissues examined ([2]; day 5 or day 7 post-inoculation): not detected
CPMV RNA detected in bone marrow, mice positive/examined ([2]; D1, Non-perfused): 3/3
CPMV RNA detected in brain, mice positive/examined ([2]; D1, Non-perfused): 3/3
CPMV RNA detected in duodenum, mice positive/examined ([2]; D1, Non-perfused): 3/3
CPMV RNA detected in ileum, mice positive/examined ([2]; D1, Non-perfused): 3/3
CPMV RNA detected in jejunum, mice positive/examined ([2]; D1, Non-perfused): 3/3
CPMV RNA detected in kidney, mice positive/examined ([2]; D1, Non-perfused): 3/3
CPMV RNA detected in liver, mice positive/examined ([2]; D1, Non-perfused): 2/3
CPMV RNA detected in lung, mice positive/examined ([2]; D1, Non-perfused): 3/3
CPMV RNA detected in spleen, mice positive/examined ([2]; D1, Non-perfused): 3/3
CPMV RNA detected in stomach, mice positive/examined ([2]; D1, Non-perfused): 3/3
CPMV RNA detected in bone marrow, mice positive/examined ([2]; D1, Perfused): 3/3
CPMV RNA detected in brain, mice positive/examined ([2]; D1, Perfused): 3/3
CPMV RNA detected in duodenum, mice positive/examined ([2]; D1, Perfused): 2/3
CPMV RNA detected in ileum, mice positive/examined ([2]; D1, Perfused): 3/3
CPMV RNA detected in jejunum, mice positive/examined ([2]; D1, Perfused): 3/3
CPMV RNA detected in kidney, mice positive/examined ([2]; D1, Perfused): 3/3
CPMV RNA detected in liver, mice positive/examined ([2]; D1, Perfused): 3/3
CPMV RNA detected in lung, mice positive/examined ([2]; D1, Perfused): 3/3
CPMV RNA detected in spleen, mice positive/examined ([2]; D1, Perfused): 3/3
CPMV RNA detected in stomach, mice positive/examined ([2]; D1, Perfused): 3/3
CPMV RNA detected in bone marrow, mice positive/examined ([2]; D2, Non-perfused): 3/3
CPMV RNA detected in brain, mice positive/examined ([2]; D2, Non-perfused): 3/3
CPMV RNA detected in duodenum, mice positive/examined ([2]; D2, Non-perfused): 3/3
CPMV RNA detected in ileum, mice positive/examined ([2]; D2, Non-perfused): 3/3
CPMV RNA detected in jejunum, mice positive/examined ([2]; D2, Non-perfused): 3/3
CPMV RNA detected in kidney, mice positive/examined ([2]; D2, Non-perfused): 3/3
CPMV RNA detected in liver, mice positive/examined ([2]; D2, Non-perfused): 3/3
CPMV RNA detected in lung, mice positive/examined ([2]; D2, Non-perfused): 3/3
CPMV RNA detected in spleen, mice positive/examined ([2]; D2, Non-perfused): 3/3
CPMV RNA detected in stomach, mice positive/examined ([2]; D2, Non-perfused): 3/3
CPMV RNA detected in bone marrow, mice positive/examined ([2]; D2, Perfused): 3/3
CPMV RNA detected in brain, mice positive/examined ([2]; D2, Perfused): 2/3
CPMV RNA detected in duodenum, mice positive/examined ([2]; D2, Perfused): 3/3
CPMV RNA detected in ileum, mice positive/examined ([2]; D2, Perfused): 3/3
CPMV RNA detected in jejunum, mice positive/examined ([2]; D2, Perfused): 3/3
CPMV RNA detected in kidney, mice positive/examined ([2]; D2, Perfused): 3/3
CPMV RNA detected in liver, mice positive/examined ([2]; D2, Perfused): 3/3
CPMV RNA detected in lung, mice positive/examined ([2]; D2, Perfused): 3/3
CPMV RNA detected in spleen, mice positive/examined ([2]; D2, Perfused): 3/3
CPMV RNA detected in stomach, mice positive/examined ([2]; D2, Perfused): 3/3
CPMV RNA detected in bone marrow, mice positive/examined ([2]; D3, Non-perfused): 3/3
CPMV RNA detected in brain, mice positive/examined ([2]; D3, Non-perfused): 3/3
CPMV RNA detected in duodenum, mice positive/examined ([2]; D3, Non-perfused): 2/3
CPMV RNA detected in ileum, mice positive/examined ([2]; D3, Non-perfused): 3/3
CPMV RNA detected in jejunum, mice positive/examined ([2]; D3, Non-perfused): 3/3
CPMV RNA detected in kidney, mice positive/examined ([2]; D3, Non-perfused): 3/3
CPMV RNA detected in liver, mice positive/examined ([2]; D3, Non-perfused): 3/3
CPMV RNA detected in lung, mice positive/examined ([2]; D3, Non-perfused): 3/3
CPMV RNA detected in spleen, mice positive/examined ([2]; D3, Non-perfused): 3/3
CPMV RNA detected in stomach, mice positive/examined ([2]; D3, Non-perfused): 1/3
CPMV RNA detected in bone marrow, mice positive/examined ([2]; D3, Perfused): 3/3
CPMV RNA detected in brain, mice positive/examined ([2]; D3, Perfused): 3/3
CPMV RNA detected in duodenum, mice positive/examined ([2]; D3, Perfused): 3/3
CPMV RNA detected in ileum, mice positive/examined ([2]; D3, Perfused): 3/3
CPMV RNA detected in jejunum, mice positive/examined ([2]; D3, Perfused): 3/3
CPMV RNA detected in kidney, mice positive/examined ([2]; D3, Perfused): 3/3
CPMV RNA detected in liver, mice positive/examined ([2]; D3, Perfused): 3/3
CPMV RNA detected in lung, mice positive/examined ([2]; D3, Perfused): 3/3
CPMV RNA detected in spleen, mice positive/examined ([2]; D3, Perfused): 3/3
CPMV RNA detected in stomach, mice positive/examined ([2]; D3, Perfused): 3/3
symptoms on cowpea leaves from virus recovered from mouse liver and spleen (cowpea plants; PEG-precipitated tissue homogenates): No symptoms were observed
inoculated amount required for a PCR signal (cowpea plants; control titration on cowpea): 1 ng
inoculated amount required to observe symptoms (cowpea plants; control titration on cowpea): 10 ng
binding to Flt-1 receptor in ELISA (Flt-1 receptor (VEGFR1)): did not show any detectable binding
non-specific binding to the cell surface [3]: significant non-specifig binding
